Source: the NIST ThermoML archive (doi:10.1021/acs.jced.5b00989)

Assay: molar heat capacity at constant pressure; xn = mol fraction of the nth substance listed
Details: 100 kPa, Liquid, Small sample (50 mg) DSC

O=C(CO)[C@@H](O)[C@H](O)[C@H](O)CO [D-fructose] + C[N+](C)(C)CCO.[Cl-]
x2 = 0.67
Details | molar heat capacity at constant pressure [J/K/mol]
298.15 K | 311.5
300.65 K | 313.8
303.15 K | 316.7
305.65 K | 319.4
308.15 K | 322
310.65 K | 324.2
313.15 K | 326.2
315.65 K | 328.3
318.15 K | 330.5
320.65 K | 332.6
323.15 K | 334.1
325.65 K | 334.9
328.15 K | 335.8
330.65 K | 336.1
333.15 K | 335.8
335.65 K | 335.7
338.15 K | 335.2
340.65 K | 334.7
343.15 K | 335.2
345.65 K | 335.8
348.15 K | 336.6
350.65 K | 337.7
353.15 K | 340.1

C[N+](C)(C)CCO.[Cl-] [choline chloride] + O=C[C@H](O)[C@@H](O)[C@H](O)[C@H](O)CO
x1 = 0.67
Details | molar heat capacity at constant pressure [J/K/mol]
298.15 K | 327.5
300.65 K | 329.1
303.15 K | 330.7
305.65 K | 332.4
308.15 K | 334.5
310.65 K | 336.7
313.15 K | 338.6
315.65 K | 340.6
318.15 K | 342.5
320.65 K | 344.5
323.15 K | 346
325.65 K | 347.2
328.15 K | 348.4
330.65 K | 349.5
333.15 K | 350.6
335.65 K | 350.9
338.15 K | 351.4
340.65 K | 352
343.15 K | 352.6
345.65 K | 353.8
348.15 K | 354.2
350.65 K | 354.4
353.15 K | 356.3

C[N+](C)(C)CCO.[Cl-] [choline chloride] + Oc1ccccc1
x1 = 0.25
Details | molar heat capacity at constant pressure [J/K/mol]
298.15 K | 219.3
300.65 K | 220.3
303.15 K | 221.2
305.65 K | 222.3
308.15 K | 223.3
310.65 K | 224.2
313.15 K | 225.1
315.65 K | 225.8
318.15 K | 226.6
320.65 K | 227.1
323.15 K | 227.9
325.65 K | 228.6
328.15 K | 229.3
330.65 K | 230.2
333.15 K | 231.1
335.65 K | 231.9
338.15 K | 232.6
340.65 K | 233.1
343.15 K | 233.5
345.65 K | 234.3
348.15 K | 234.5
350.65 K | 235
353.15 K | 236.8

O=C(O)CC(O)(CC(=O)O)C(=O)O [citric acid] + C[N+](C)(C)CCO.[Cl-]
x2 = 0.33
Details | molar heat capacity at constant pressure [J/K/mol]
298.15 K | 422
300.65 K | 422.9
303.15 K | 424
305.65 K | 425.2
308.15 K | 426.1
310.65 K | 427.2
313.15 K | 428.7
315.65 K | 429.8
318.15 K | 430.6
320.65 K | 431.9
323.15 K | 433
325.65 K | 433.5
328.15 K | 435.4
330.65 K | 436.7
333.15 K | 437.5
335.65 K | 438.6
338.15 K | 439.7
340.65 K | 440.6
343.15 K | 442.1
345.65 K | 446.1
348.15 K | 447.2
350.65 K | 446.8
353.15 K | 449.4
